Columns and labels:
MAPK13 = conditions: read-out: IC50 [MAPK13]; cited from earlier work
[1] = target: T1, MAPK13 (unphosphorylated) (Homo sapiens, UniProt O15264); assay: Differential scanning fluorimetry; assay type: binding
T1 sequence (O15264 1-365): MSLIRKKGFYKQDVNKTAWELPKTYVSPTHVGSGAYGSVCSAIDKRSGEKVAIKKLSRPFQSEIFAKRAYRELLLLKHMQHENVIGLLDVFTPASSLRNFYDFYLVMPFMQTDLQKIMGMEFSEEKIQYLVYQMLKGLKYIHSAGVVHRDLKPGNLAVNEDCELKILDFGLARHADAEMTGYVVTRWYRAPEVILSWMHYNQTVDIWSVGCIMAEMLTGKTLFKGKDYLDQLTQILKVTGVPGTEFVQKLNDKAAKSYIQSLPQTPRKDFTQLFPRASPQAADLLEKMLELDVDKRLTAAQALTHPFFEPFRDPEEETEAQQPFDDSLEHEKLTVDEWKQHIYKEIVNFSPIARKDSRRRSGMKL

[2] = target: T2, activated (phosphorylated) MAPK13 (Homo sapiens, UniProt O15264); assay: MAPK13 kinase inhibition assay; assay type: biochemical; conditions: for IC50 (MAPK13): steady-state enzyme inhibition, 3 μM ATP, stated as range in words; for fold less potent (IC50) than compounds 58 and 61: MAPK13 IC50 comparison
T2 sequence (O15264 1-365): T1 sequence (O15264 1-365)

MAPK14 = MAPK14 (Homo sapiens, UniProt Q16539); assay: Differential scanning fluorimetry; assay type: binding
Sequence of MAPK14 (Q16539 whole entry, species assumed): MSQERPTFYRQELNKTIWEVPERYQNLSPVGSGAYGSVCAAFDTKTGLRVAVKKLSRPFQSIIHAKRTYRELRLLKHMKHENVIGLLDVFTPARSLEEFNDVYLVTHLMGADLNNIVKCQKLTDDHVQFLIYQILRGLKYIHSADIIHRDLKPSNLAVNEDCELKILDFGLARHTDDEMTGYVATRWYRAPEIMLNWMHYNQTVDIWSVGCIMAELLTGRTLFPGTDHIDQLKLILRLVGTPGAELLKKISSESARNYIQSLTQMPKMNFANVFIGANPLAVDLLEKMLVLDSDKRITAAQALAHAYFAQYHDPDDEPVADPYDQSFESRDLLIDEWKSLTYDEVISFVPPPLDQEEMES

SMILES	IC50 (MAPK13)	Kd [1]	IC50 (MAPK13) [2]	fold less potent (IC50) than compounds 58 and 61 [2]	ATm-MAPK14 (°C) (MAPK14)
Cn1nc(C(C)(C)C)cc1NC(=O)Nc1ccc(Sc2ccncc2)cc1 [Compound 58, 1-(3-tert-butyl-1-methyl-1H-pyrazol-5-yl)-3-[4-(pyridin-4-ylsulfanyl)phenyl]urea]	–	1.9 ± 0.3 µM	nanomolar range	–	–
Cc1cn(-c2cccc(C(=O)Nc3ccc(Oc4ccncc4)cc3)c2)cn1 [Compound 117, 3-(4-methyl-1H-imidazol-1-yl)-N-[4-(pyridin-4-xyloxy)phenyl] benzamide]	–	–	micromolar range	over 800 fold	–
O=C(Nc1ccc(Oc2ccncc2)cc1)c1ccnc(N2CCOCC2)c1 [Compound 124]	–	–	–	over 800 fold	−0.8± 0.3 °C

From PMC5011001 (Biochimica et biophysica acta, 2016)
